This note sets out measurements from patent US20050065166A1, “Substituted pyrimidines” (priority 2001, published 2005).

For the compound `Cc1nc(SCc2ccc(Cl)cc2)nc2c1CCCC2`, the melting point came out at 48 °C. In turn, `Cc1nc([S+]([O-])Cc2ccc(Cl)cc2)nc2c1CCCC2` (stereo not drawn) returned a melting point of 127 °C. Next, `Cc1nc(S(=O)(=O)Cc2ccc(Cl)cc2)nc2c1CCCC2`: 151 °C.

A word on the melting point: it is the temperature, or range, at which the solid turns liquid.
